From publication PMC7933434, “Entropy-driven binding of gut bacterial β-glucuronidase inhibitors ameliorates irinotecan-induced toxicity” (Communications Biology, 2021)
“And” between values parts separate entries of the source, which are not always exact repeats. Equal entries are not always repeated.

How the values were obtained:
HsGUS (human GUS) = target: T1, HsGUS (human GUS) (Homo sapiens, UniProt P08236); assay: GUS inhibition assay, hydrolysis of 4-methylumbelliferyl-β-glucuronide, HsGUS; type: biochemical; parameters: GUS activity (hydrolysis rate of MUG): unit not given here
T1 construct: HsGUS was prepared as described[37]; made in house
T1 sequence (P08236 23-651): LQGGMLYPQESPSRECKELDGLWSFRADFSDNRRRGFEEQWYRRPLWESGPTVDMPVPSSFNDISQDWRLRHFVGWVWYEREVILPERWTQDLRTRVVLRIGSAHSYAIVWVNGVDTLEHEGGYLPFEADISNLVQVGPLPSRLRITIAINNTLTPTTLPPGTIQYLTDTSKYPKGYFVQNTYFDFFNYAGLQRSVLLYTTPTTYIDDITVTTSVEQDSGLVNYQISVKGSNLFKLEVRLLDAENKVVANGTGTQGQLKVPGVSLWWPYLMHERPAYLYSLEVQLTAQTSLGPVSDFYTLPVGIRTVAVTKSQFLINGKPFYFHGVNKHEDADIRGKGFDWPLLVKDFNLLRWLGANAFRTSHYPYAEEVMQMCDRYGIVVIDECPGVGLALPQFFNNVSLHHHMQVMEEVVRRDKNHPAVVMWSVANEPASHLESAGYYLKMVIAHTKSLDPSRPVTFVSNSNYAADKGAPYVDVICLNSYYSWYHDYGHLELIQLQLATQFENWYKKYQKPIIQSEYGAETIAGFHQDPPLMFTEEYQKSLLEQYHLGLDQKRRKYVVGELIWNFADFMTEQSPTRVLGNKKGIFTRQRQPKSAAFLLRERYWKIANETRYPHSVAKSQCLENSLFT

[1] = target: LgGUS (Lactobacillus gasseri GUS) (Lactobacillus gasseri, UniProt Q9AHJ8); assay: GUS inhibition assay, hydrolysis of 4-methylumbelliferyl-β-glucuronide, LgGUS; type: biochemical; parameters: GUS activity (hydrolysis rate of MUG) / 1/v: unit not given here; settings: for Ki: LgGUS
LgGUS (Lactobacillus gasseri GUS), sequence (Q9AHJ8 1-598): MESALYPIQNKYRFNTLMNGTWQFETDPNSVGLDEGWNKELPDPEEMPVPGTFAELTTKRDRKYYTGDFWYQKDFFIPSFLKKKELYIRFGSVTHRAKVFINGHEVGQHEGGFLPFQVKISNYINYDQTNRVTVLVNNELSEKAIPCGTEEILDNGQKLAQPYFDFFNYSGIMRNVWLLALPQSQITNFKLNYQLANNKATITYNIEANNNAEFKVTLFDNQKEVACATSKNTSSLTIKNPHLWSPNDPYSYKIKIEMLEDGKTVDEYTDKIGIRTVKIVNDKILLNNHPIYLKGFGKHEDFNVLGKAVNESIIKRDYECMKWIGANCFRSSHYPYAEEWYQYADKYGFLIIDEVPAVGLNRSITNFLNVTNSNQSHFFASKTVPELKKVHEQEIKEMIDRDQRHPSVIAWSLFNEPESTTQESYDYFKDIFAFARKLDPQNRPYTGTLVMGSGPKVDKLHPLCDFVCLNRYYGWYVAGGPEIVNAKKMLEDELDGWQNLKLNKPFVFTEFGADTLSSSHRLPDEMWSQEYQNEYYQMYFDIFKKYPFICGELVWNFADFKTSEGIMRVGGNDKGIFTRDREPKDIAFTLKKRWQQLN

[2] = [Inhibitor 4] = 0.1 μM, [MUG] 0.0375 mM
[3] = [Inhibitor 4] = 0.1 μM, [MUG] 0.05 mM
[4] = [Inhibitor 4] = 0.1 μM, [MUG] 0.075 mM
[5] = [Inhibitor 4] = 0.1 μM, [MUG] 0.15 mM
[6] = [Inhibitor 4] = 0.2 μM, [MUG] 0.0375 mM
[7] = [Inhibitor 4] = 0.2 μM, [MUG] 0.05 mM
[8] = [Inhibitor 4] = 0.2 μM, [MUG] 0.075 mM
[9] = [Inhibitor 4] = 0.2 μM, [MUG] 0.15 mM
[10] = [Inhibitor 4] = 0.4 μM, [MUG] 0.0375 mM
[11] = [Inhibitor 4] = 0.4 μM, [MUG] 0.05 mM
[12] = [Inhibitor 4] = 0.4 μM, [MUG] 0.075 mM
[13] = [Inhibitor 4] = 0.4 μM, [MUG] 0.15 mM
[14] = [Inhibitor 4] = 0.6 μM, [MUG] 0.0375 mM
[15] = [Inhibitor 4] = 0.6 μM, [MUG] 0.05 mM
[16] = [Inhibitor 4] = 0.6 μM, [MUG] 0.075 mM
[17] = [Inhibitor 4] = 0.6 μM, [MUG] 0.15 mM

Q: Which results are given for `CCCCCCCCC[C@@H]1NC[C@@H](O)[C@H](O)[C@H]1C(=O)O` [Inhibitor 4, C6-nonyl UIFG]?
A: Ki (HsGUS (human GUS); HsGUS, 50 mM sodium acetate pH 4.5, 37 °C): 105 µM; GUS activity (hydrolysis rate of MUG) (HsGUS (human GUS); [Inhibitor 4] =32 μM, [MUG] 0.1 mM): 862.058 and 811.68; GUS activity (hydrolysis rate of MUG) (HsGUS (human GUS); [Inhibitor 4] =32 μM, [MUG] 0.2 mM): 1454.23 and 1423.51; GUS activity (hydrolysis rate of MUG) (HsGUS (human GUS); [Inhibitor 4] =32 μM, [MUG] 0.4 mM): 2392.78 and 2276.09; GUS activity (hydrolysis rate of MUG) (HsGUS (human GUS); [Inhibitor 4] =32 μM, [MUG] 0.6 mM): 3009.56 and 2960.24; GUS activity (hydrolysis rate of MUG) (HsGUS (human GUS); [Inhibitor 4] =32 μM, [MUG] 0.8 mM): 3491.23 and 3336.67; GUS activity (hydrolysis rate of MUG) (HsGUS (human GUS); [Inhibitor 4] =32 μM, [MUG] 1.2 mM): 3870.44 and 4183.78; GUS activity (hydrolysis rate of MUG) (HsGUS (human GUS); [Inhibitor 4] =32 μM, [MUG] 1.6 mM): 4158.21 and 4615.97; GUS activity (hydrolysis rate of MUG) (HsGUS (human GUS); [Inhibitor 4] =32 μM, [MUG] 2 mM): 4779.14 and 4997.44; GUS activity (hydrolysis rate of MUG) (HsGUS (human GUS); [Inhibitor 4] =67 μM, [MUG] 0.1 mM): 714.053 and 717.679; GUS activity (hydrolysis rate of MUG) (HsGUS (human GUS); [Inhibitor 4] =67 μM, [MUG] 0.2 mM): 1251.96 and 1238.2; GUS activity (hydrolysis rate of MUG) (HsGUS (human GUS); [Inhibitor 4] =67 μM, [MUG] 0.4 mM): 2074.49 and 2003.18; GUS activity (hydrolysis rate of MUG) (HsGUS (human GUS); [Inhibitor 4] =67 μM, [MUG] 0.6 mM): 2680.12 and 2744.95; GUS activity (hydrolysis rate of MUG) (HsGUS (human GUS); [Inhibitor 4] =67 μM, [MUG] 0.8 mM): 3069.97 and 3096.82; GUS activity (hydrolysis rate of MUG) (HsGUS (human GUS); [Inhibitor 4] =67 μM, [MUG] 1.2 mM): 3696.42 and 3579.45; GUS activity (hydrolysis rate of MUG) (HsGUS (human GUS); [Inhibitor 4] =67 μM, [MUG] 1.6 mM): 4205.98 and 4285.65; GUS activity (hydrolysis rate of MUG) (HsGUS (human GUS); [Inhibitor 4] =67 μM, [MUG] 2 mM): 4703.3 and 4573.62; GUS activity (hydrolysis rate of MUG) (HsGUS (human GUS); [Inhibitor 4] =132 μM, [MUG] 0.1 mM): 517.307 and 519.469; GUS activity (hydrolysis rate of MUG) (HsGUS (human GUS); [Inhibitor 4] =132 μM, [MUG] 0.2 mM): 900.965 and 901.806; GUS activity (hydrolysis rate of MUG) (HsGUS (human GUS); [Inhibitor 4] =132 μM, [MUG] 0.4 mM): 1492.38 and 1537.56; GUS activity (hydrolysis rate of MUG) (HsGUS (human GUS); [Inhibitor 4] =132 μM, [MUG] 0.6 mM): 1976.12 and 2037.84; GUS activity (hydrolysis rate of MUG) (HsGUS (human GUS); [Inhibitor 4] =132 μM, [MUG] 0.8 mM): 2410.12 and 2475.98; GUS activity (hydrolysis rate of MUG) (HsGUS (human GUS); [Inhibitor 4] =132 μM, [MUG] 1.2 mM): 2927.86 and 2924.04; GUS activity (hydrolysis rate of MUG) (HsGUS (human GUS); [Inhibitor 4] =132 μM, [MUG] 1.6 mM): 3406.61 and 3409.83; GUS activity (hydrolysis rate of MUG) (HsGUS (human GUS); [Inhibitor 4] =132 μM, [MUG] 2 mM): 3959.47 and 3855.66; GUS activity (hydrolysis rate of MUG) (HsGUS (human GUS); [Inhibitor 4] =180 μM, [MUG] 0.1 mM): 375.667 and 389.113; GUS activity (hydrolysis rate of MUG) (HsGUS (human GUS); [Inhibitor 4] =180 μM, [MUG] 0.2 mM): 647.66 and 642.675; GUS activity (hydrolysis rate of MUG) (HsGUS (human GUS); [Inhibitor 4] =180 μM, [MUG] 0.4 mM): 1075.66 and 1190.92; GUS activity (hydrolysis rate of MUG) (HsGUS (human GUS); [Inhibitor 4] =180 μM, [MUG] 0.6 mM): 1564.63 and 1648.7; GUS activity (hydrolysis rate of MUG) (HsGUS (human GUS); [Inhibitor 4] =180 μM, [MUG] 0.8 mM): 1885.35 and 1934.39; GUS activity (hydrolysis rate of MUG) (HsGUS (human GUS); [Inhibitor 4] =180 μM, [MUG] 1.2 mM): 2412.5 and 2422.72; GUS activity (hydrolysis rate of MUG) (HsGUS (human GUS); [Inhibitor 4] =180 μM, [MUG] 1.6 mM): 2821.07 and 2863.56; GUS activity (hydrolysis rate of MUG) (HsGUS (human GUS); [Inhibitor 4] =180 μM, [MUG] 2 mM): 3316.38 and 3309.46; GUS activity (hydrolysis rate of MUG) (HsGUS (human GUS); [Inhibitor 4] =262 μM, [MUG] 0.1 mM): 312.332 and 326.592; GUS activity (hydrolysis rate of MUG) (HsGUS (human GUS); [Inhibitor 4] =262 μM, [MUG] 0.2 mM): 574.208 and 582.829; GUS activity (hydrolysis rate of MUG) (HsGUS (human GUS); [Inhibitor 4] =262 μM, [MUG] 0.4 mM): 1016.99 and 1025.39; GUS activity (hydrolysis rate of MUG) (HsGUS (human GUS); [Inhibitor 4] =262 μM, [MUG] 0.6 mM): 1397.45 and 1434.43; GUS activity (hydrolysis rate of MUG) (HsGUS (human GUS); [Inhibitor 4] =262 μM, [MUG] 0.8 mM): 1699 and 1721.63; GUS activity (hydrolysis rate of MUG) (HsGUS (human GUS); [Inhibitor 4] =262 μM, [MUG] 1.2 mM): 2236.3 and 2225.05; GUS activity (hydrolysis rate of MUG) (HsGUS (human GUS); [Inhibitor 4] =262 μM, [MUG] 1.6 mM): 2654.14 and 2619.41; GUS activity (hydrolysis rate of MUG) (HsGUS (human GUS); [Inhibitor 4] =262 μM, [MUG] 2 mM): 3001.13 and 3042.83; Ki [1]: 0.27 µM; Ki ([1]; 50 mM sodium acetate pH 4.5, 37 °C): 0.27 ± 0.074 µM; 1/v [1, 2]: 0.07099 and 0.06547 and 0.07752; GUS activity (hydrolysis rate of MUG) [1, 2]: 17345 and 18805 and 15888; 1/v [1, 3]: 0.08248 and 0.08036 and 0.08633; GUS activity (hydrolysis rate of MUG) [1, 3]: 14936 and 15328 and 14270; 1/v [1, 4]: 0.1044 and 0.09961 and 0.1132; GUS activity (hydrolysis rate of MUG) [1, 4]: 11804 and 12374 and 10895; 1/v [1, 5]: 0.1278 and 0.1207 and 0.1294; GUS activity (hydrolysis rate of MUG) [1, 5]: 9649 and 10216 and 9535; 1/v [1, 6]: 0.05896 and 0.0562 and 0.06114; GUS activity (hydrolysis rate of MUG) [1, 6]: 20877 and 21902 and 20134; 1/v [1, 7]: 0.07315 and 0.0639 and 0.07306; GUS activity (hydrolysis rate of MUG) [1, 7]: 16834 and 19266 and 16856; 1/v [1, 8]: 0.08853 and 0.08384 and 0.0916; GUS activity (hydrolysis rate of MUG) [1, 8]: 13918 and 14693 and 13452; 1/v [1, 9]: 0.113 and 0.1097 and 0.1193; GUS activity (hydrolysis rate of MUG) [1, 9]: 10909 and 11240 and 10335; 1/v [1, 10]: 0.04482 and 0.03964 and 0.04854; GUS activity (hydrolysis rate of MUG) [1, 10]: 27452 and 31030 and 25348; 1/v [1, 11]: 0.06247 and 0.0466 and 0.0623; GUS activity (hydrolysis rate of MUG) [1, 11]: 19707 and 26401 and 19760; 1/v [1, 12]: 0.07433 and 0.06177 and 0.07489; GUS activity (hydrolysis rate of MUG) [1, 12]: 16569 and 19929 and 16445; 1/v [1, 13]: 0.09796 and 0.08796 and 0.1041; GUS activity (hydrolysis rate of MUG) [1, 13]: 12581 and 14006 and 11837; 1/v [1, 14]: 0.03481 and 0.03381 and 0.03972; GUS activity (hydrolysis rate of MUG) [1, 14]: 35328 and 36376 and 30969; 1/v [1, 15]: 0.04379 and 0.03975 and 0.04826; GUS activity (hydrolysis rate of MUG) [1, 15]: 28094 and 30946 and 25494; 1/v [1, 16]: 0.05918 and 0.05295 and 0.06497; GUS activity (hydrolysis rate of MUG) [1, 16]: 20799 and 23242 and 18949; 1/v [1, 17]: 0.08688 and 0.08016 and 0.09205; GUS activity (hydrolysis rate of MUG) [1, 17]: 14180 and 15366 and 13387
